From patent US10407422B2, “Triazolopyridine inhibitors of myeloperoxidase” (priority 2015, dated 2019)

Legend:
Format in all cases: biochemical
myeloperoxidase (MPO) [1] = target: T1, myeloperoxidase (MPO) (Homo sapiens (Human), UniProt P05164); assay: MPO peroxidation assay (Amplex Red assay); details: potency range class
Summary of the method: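 IC50 values come from a four-parameter fit of rates taken from the linear 180-540 s portion of a 15 min kinetic read of resorufin (Ex 535/Em 590 nm). Amplex Red (200 μM) plus 10 mM H2O2 was added after a 10 min room-temperature preincubation of inhibitor with 200 pM MPO and 40 nM H2O2 in 100 mM KPi, pH 7.4.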

[2] = target: eosinophil peroxidase (EPX) (Homo sapiens (Human), UniProt P11678); assay: EPX bromination assay
Sequence of eosinophil peroxidase (EPX) (P11678 140-715): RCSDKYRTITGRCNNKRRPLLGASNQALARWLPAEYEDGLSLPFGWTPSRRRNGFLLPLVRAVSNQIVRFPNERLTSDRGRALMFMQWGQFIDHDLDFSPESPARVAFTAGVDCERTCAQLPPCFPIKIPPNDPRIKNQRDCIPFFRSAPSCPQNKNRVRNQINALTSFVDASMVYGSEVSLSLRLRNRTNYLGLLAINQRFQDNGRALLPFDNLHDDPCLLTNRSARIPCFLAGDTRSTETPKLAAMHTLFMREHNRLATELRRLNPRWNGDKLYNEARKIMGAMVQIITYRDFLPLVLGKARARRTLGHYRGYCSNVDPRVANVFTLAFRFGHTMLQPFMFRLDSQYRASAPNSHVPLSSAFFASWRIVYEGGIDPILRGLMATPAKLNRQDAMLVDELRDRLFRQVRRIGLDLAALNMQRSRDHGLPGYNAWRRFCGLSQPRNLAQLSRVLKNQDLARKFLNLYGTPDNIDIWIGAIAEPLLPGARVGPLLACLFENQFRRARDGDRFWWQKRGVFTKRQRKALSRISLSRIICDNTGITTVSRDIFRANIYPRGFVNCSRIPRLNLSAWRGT
Procedure: [formula] where A=minimal Y value (activity level of inhibited sample), B=maximal Y value (activity level of uninhibited sample), C=Log IC50, D=Hill Slope, x=concentration of inhibitor. EPX Bromination Assay
EPX bromination activity was measured in 100 mM KPi (pH 7.4) by monitoring the H2O2 catalyzed formation of 3-bromo tyrosine from tyrosine and potassium bromide. A 50 μl mixture of 0.6 μM EPX (Lee Biosolutions Cat. #342-60) was added to 100 nL inhibitor in 100% DMSO in a 384 well REMP plate. Enzyme and compound were preincubated for ten minutes at room temperature.
After the ten minute preincubation of enzyme and inhibitor, 25 μL of a mixture containing 400 μM tyrosine and 1200 μM potassium bromide was added to the plate containing enzyme and inhibitor, followed by the addition of 25 μl of 20 μM H2O2. The reaction was allowed to proceed for 15 minutes, at which time it was quenched with 10 μL of 20% TCA. The final concentrations of all components were 0.3 μM EPX, 100 μM tyrosine, […], 5 μM H2O2, 0.1% DMSO, 2.0% TCA.
IC50 values were determined by determining the peak areas of 3-bromotyrosine present at the end of the 15 minute reaction and fitting the data to:
[formula] where A=minimal Y value (activity level of inhibited sample), B=maximal Y value (activity level of uninhibited sample), C=Log IC50, D=Hill Slope, x=concentration of inhibitor.
Reversed-phase analysis was performed on a Waters Acquity Ultra Performance LC system using an Acquity UPLC BEH C18 […], 2.1×50 mm analytical column. The column was maintained at 60° C. Samples were eluted using a gradient of 0%-100% B over 2.5 minutes, followed by equilibration with 100% A for 1 minute where A consisted of 0.1% TFA and B consisted of 90% MeOH/0.1% TFA at a flow rate of 0.6 mL/min. The retention time of 3-bromo tyrosine was 1.22 min (Method A).

myeloperoxidase (MPO) [3] = target: T1, myeloperoxidase (MPO); assay: MPO chlorination assay (APF assay); details: potency range class
Summary of the method: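 Chlorinating activity followed by APF cleavage to fluorescein (485/535 nm, 3 min kinetic read) after adding APF and 10 μM H2O2. Beforehand, 200 pM enzyme, compound and 120 mM NaCl sat 10 min at room temperature in 100 mM KPi, pH 7.4. Initial-rate slopes gave % inhibition; IC50 by Hill-slope fit.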

T1 sequence (P05164 49-745): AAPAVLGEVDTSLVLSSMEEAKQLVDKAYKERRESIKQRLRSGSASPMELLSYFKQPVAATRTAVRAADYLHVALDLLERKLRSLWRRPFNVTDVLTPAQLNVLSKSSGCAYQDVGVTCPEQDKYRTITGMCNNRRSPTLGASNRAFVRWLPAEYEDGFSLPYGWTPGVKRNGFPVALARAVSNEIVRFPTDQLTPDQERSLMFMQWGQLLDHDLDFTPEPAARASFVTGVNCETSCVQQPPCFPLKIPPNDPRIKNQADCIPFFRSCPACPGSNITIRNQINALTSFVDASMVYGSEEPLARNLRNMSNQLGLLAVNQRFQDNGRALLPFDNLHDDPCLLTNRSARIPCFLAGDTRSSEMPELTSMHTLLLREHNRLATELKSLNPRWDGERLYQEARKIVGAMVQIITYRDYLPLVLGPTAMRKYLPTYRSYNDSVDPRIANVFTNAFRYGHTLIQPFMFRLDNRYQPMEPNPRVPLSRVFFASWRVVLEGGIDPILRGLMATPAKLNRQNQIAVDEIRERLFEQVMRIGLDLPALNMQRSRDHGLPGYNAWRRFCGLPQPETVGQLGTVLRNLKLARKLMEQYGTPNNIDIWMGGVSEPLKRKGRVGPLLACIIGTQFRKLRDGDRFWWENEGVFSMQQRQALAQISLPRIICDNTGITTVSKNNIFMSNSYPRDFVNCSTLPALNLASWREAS

Structure (SMILES) | IC50 (myeloperoxidase (MPO) [1]) [nM] | IC50 [2] [nM] | IC50 (myeloperoxidase (MPO) [3]) [nM]
Nc1cc(Cc2cnn(Cc3ccccc3)c2)c2nn[nH]c2n1 [Example 34, 7-((1-Benzyl-1H-pyrazol-4-yl)methyl)-3H-[1,2,3]triazolo[4,5-b]pyridin-5-amine] | 1 to 100 | 30 | 101 to 999
Nc1cc(Cc2cnn(-c3ccccc3)c2)c2nn[nH]c2n1 [Example 5, 7-((1-Phenyl-1H-pyrazol-4-yl)methyl)-3H-[1,2,3]triazolo[4,5-b]pyridin-5-amine] | 1 to 100 | 11 | 1 to 100
Nc1cc(Cc2cnn(Cc3cccc(C4CCNC4)c3)c2)c2nn[nH]c2n1 (centres unmarked) [Example 187, 7-[(1-{[3-(Pyrrolidin-3-yl)phenyl]methyl}-1H-pyrazol-4-yl)methyl]-3H-[1,2,3]triazolo[4,5-b]pyridin-5-amine] | 1 to 100 | 21 | 1 to 100
Nc1cc(Cc2cnn(-c3ccc(F)cc3)c2)c2nn[nH]c2n1 [Example 1, 7-((1-(4-Fluorophenyl)-1H-pyrazol-4-yl)methyl)-3H-[1,2,3]triazolo[4,5-b]pyridin-5-amine] | 1 to 100 | 19 | 1 to 100
Nc1cc(Cc2cn(Cc3ccccc3)nn2)c2nn[nH]c2n1 [Example 52, 7-((1-Benzyl-1H-1,2,3-triazol-4-yl)methyl)-3H-[1,2,3]triazolo[4,5-b]pyridin-5-amine] | 1 to 100 | 20 | 101 to 999
Nc1cc(Cc2cnn(Cc3ccc(CNC4CC4)cc3)c2)c2nn[nH]c2n1 [Example 185, 7-{[1-({4-[(Cyclopropylamino)methyl]phenyl}methyl)-1H-pyrazol-4-yl]methyl}-3H-[1,2,3]triazolo[4,5-b]pyridin-5-amine] | 1 to 100 | 45 | 101 to 999
Nc1cc(Cc2cnn(Cc3ccc4c(c3)CCNC4)c2)c2nn[nH]c2n1 [Example 130, 7-((1-((1,2,3,4-Tetrahydroisoquinolin-6-yl)methyl)-1H-pyrazol-4-yl)methyl)-3H-[1,2,3]triazolo[4,5-b]pyridin-5-amine] | 1 to 100 | 8 | 1 to 100
Nc1cc(Cc2cnn(Cc3ccc4c(c3)C(F)(F)CNC4)c2)c2nn[nH]c2n1 [Example 260, 7-({1-[(4,4-Difluoro-1,2,3,4-tetrahydroisoquinolin-6-yl)methyl]-1H-pyrazol-4-yl}methyl)-3H-[1,2,3]triazolo[4,5-b]pyridin-5-amine] | 1 to 100 | 114 | 101 to 999
Nc1cc(Cc2cnn(C3CCC3)c2)c2nn[nH]c2n1 [Example 53, 7-((1-Cyclobutyl-1H-pyrazol-4-yl)methyl)-3H-[1,2,3]triazolo[4,5-b]pyridin-5-amine] | 1 to 100 | 32 | 
N#Cc1cccc(-c2ccc(Cn3cc(Cc4cc(N)nc5[nH]nnc45)cn3)cc2)c1 [Example 154, 3-(4-{[4-({5-Amino-3H-[1,2,3]triazolo[4,5-b]pyridin-7-yl}methyl)-1H-pyrazol-1-yl]methyl}phenyl)benzonitrile] | 101 to 999 |  | 101 to 999
Nc1cc(Cc2cnn(CC3CC4(CCNCC4)C3)c2)c2nn[nH]c2n1 [Example 274, 7-[(1-{7-Azaspiro[3.5]nonan-2-ylmethyl}-1H-pyrazol-4-yl)methyl]-3H-[1,2,3]triazolo[4,5-b]pyridin-5-amine] | 1 to 100 |  | 101 to 999
Nc1cc(Cc2cnn(C3CCCC3)c2)c2nn[nH]c2n1 [Example 54, 7-((1-Cyclopentyl-1H-pyrazol-4-yl)methyl)-3H-[1,2,3]triazolo[4,5-b]pyridin-5-amine] | 1 to 100 |  | 1 to 100
COc1ncc(-c2cccc(Cn3cc(Cc4cc(N)nc5[nH]nnc45)cn3)c2)cn1 [Example 156, 7-[(1-{[3-(2-Methoxypyrimidin-5-yl)phenyl]methyl}-1H-pyrazol-4-yl)methyl]-3H-[1,2,3]triazolo[4,5-b]pyridin-5-amine] | 1 to 100 |  | 1 to 100
CN1CCc2cc(Cn3cc(Cc4cc(N)nc5[nH]nnc45)cn3)ccc2C1 [Example 159, -((1-((2-Methyl-1,2,3,4-tetrahydroisoquinolin-6-yl)methyl)-1H-pyrazol-4-yl)methyl)-3H-[1,2,3]triazolo[4,5-b]pyridin-5-amine] | 1 to 100 |  | 101 to 999
Nc1cc(Cc2cnn(C(CO)c3ccccc3)c2)c2nn[nH]c2n1 (centres unmarked) [Example 145, 2-(4-((5-Amino-3H-[1,2,3]triazolo[4,5-b]pyridin-7-yl)methyl)-1H-pyrazol-1-yl)-2-phenylethanol] | 101 to 999 |  | 101 to 999
